This is an account of results in ChEMBL document CHEMBL1201862, “PubChem BioAssay data set” (2004).

Molecules are shown by their SMILES.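 Tested at 5 concentrations; 48 h exposure; 96-well plates; endpoints linearly interpolated, else capped at highest concentration. GI50 marks 50% less growth.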 Calls of active or inactive are those of the source. Cut-off read from the data, not from the text of the source: active = GI50 up to about 1.1 µM and inactive = higher.

Test systems include M14; DMS-114; A549; ACHN; RXF 393; XF498; TK-10; DMS-273; LOX IMVI; OVCAR-4; RXF 631; SNB-19; NCI-H23; LXFL 529; OVCAR-5; SR; KM12; HCC 2998; MCF7; NCI/ADR-RES.
Common to all, as to assay: NCI anticancer screen, dose series, 48 h

As to `COc1ccc(C2C(C(=O)O)=C(CO)Oc3cc4c(cc32)OCO4)cc1` (stereo unspecified), the GI50 in the test with M14, with DMS-114, with A549, in the test on ACHN, in the test on RXF 393 and in the test on XF498 was > 100 µM (inactive) in each case. Moreover, the GI50 in the test with TK-10, with DMS-273, with LOX IMVI, in the test on OVCAR-4, in the test with RXF 631 and with SNB-19 was > 100 µM (inactive) each time. In addition, the GI50 in the test on NCI-H23 was > 100 µM (inactive).

In the case of `CCOC(=O)C(=CNC(Cc1c[nH]c2ccccc12)C(=O)OC)C(=O)OCC` (stereo unspecified), the GI50 in the test with M14, with DMS-114, in the test with ACHN, with XF498, in the test on TK-10 and in the test with LOX IMVI was > 100 µM (inactive) in each case. Moreover, the GI50 with LXFL 529, with RXF 631, in the test on SNB-19 and with NCI-H23 was > 100 µM (inactive) throughout.

For the compound `C#CCOc1c(C(=O)OCC)c(=O)n(C)c2ccccc12`, the GI50 in the test on M14 was > 100 µM (inactive); with DMS-114, > 100 µM (inactive); in the test with ACHN it was > 100 µM (inactive); in the test on XF498, 72.6 µM (inactive); in the test on TK-10 it was > 100 µM (inactive); in the test on LOX IMVI it was > 100 µM (inactive). For the same compound, the GI50 in the test with LXFL 529, in the test with RXF 631, in the test on SNB-19 and in the test on NCI-H23 was > 100 µM (inactive) in each case.

Turning to `N=S(=O)(c1ccccc1)c1ccccc1`, the GI50 in the test with M14, with OVCAR-5, with DMS-114, in the test on SR, in the test with A549 and in the test with ACHN was > 100 µM (inactive) each time. In addition, the GI50 in the test on LOX IMVI, with LXFL 529, with OVCAR-4, in the test with KM12, with HCC 2998 and in the test on SNB-19 was > 100 µM (inactive) in each case. Further, the GI50 in the test on NCI-H23 is > 100 µM (inactive).

Take `NC(CCOCCP(=O)(O)O)C(=O)O` (stereo unspecified): the GI50 with M14, in the test with MCF7, with OVCAR-5, in the test with NCI/ADR-RES, in the test with SR and in the test with A549 was > 100 µM (inactive) throughout. Moreover, the GI50 in the test on ACHN, in the test with RXF 393, in the test on TK-10, in the test with LOX IMVI, in the test on OVCAR-4 and in the test with KM12 was > 100 µM (inactive) in each case. Moreover, the GI50 with HCC 2998, with SNB-19 and in the test with NCI-H23 was > 100 µM (inactive) in each case.

Consider `Nc1nc(=O)[nH][nH]1`, for which the GI50 in the test on MCF7, with OVCAR-5, in the test with NCI/ADR-RES, in the test on DMS-114, in the test on A549 and in the test on RXF 393 was > 100 µM (inactive) each time. Besides, the GI50 with XF498, with DMS-273, with LOX IMVI, with OVCAR-4, in the test with KM12 and with HCC 2998 was > 100 µM (inactive) throughout. The GI50 in the test on SNB-19 and in the test with NCI-H23 was > 100 µM (inactive) in each case.

As for `O=C1NC(=O)C2(CCc3ccc(N(CCCl)CCCl)cc32)N1` (stereo unspecified), the GI50 is 10.1 µM (inactive) in the test with MCF7; 13.2 µM (inactive) in the test with OVCAR-5; 9.77 µM (inactive) in the test on NCI/ADR-RES; 10.9 µM (inactive) with DMS-114; 8.36 µM (inactive) in the test on A549; 6.7 µM (inactive) in the test on RXF 393. Moreover, the GI50 in the test with DMS-273 is 2.94 µM (inactive); in the test with LOX IMVI it was 8.99 µM (inactive); with OVCAR-4, 19.8 µM (inactive); with KM12, 29.3 µM (inactive); in the test with HCC 2998 it was 15.9 µM (inactive); in the test with SNB-19 it was 3.37 µM (inactive). In addition, the GI50 in the test on NCI-H23 is 6.5 µM (inactive).

Consider `CC1C(O)[C@@]2(OC[C@@]34C(=O)CC5(O)[C@H](CCC6Cc7nc8c(nc7C[C@]65C)CC5CC[C@@H]6C7=C[C@H]9O[C@@]%10(O[C@@](C)(CO)C[C@@H]%10O)C(C)[C@@]9(O)[C@]7(C)[C@@H](O)CC6[C@]5(C)C8)C3=CC[C@H]4C2C)OC1(C)C` (stereo partly specified), for which the GI50 in the test with MCF7 is < 0.000355 µM (active); in the test on OVCAR-5, 0.00211 µM (active); with NCI/ADR-RES it was > 3.55 µM (inactive); in the test on DMS-114 it was < 0.000355 µM (active); in the test with A549, < 0.000355 µM (active); in the test on RXF 393, < 0.000355 µM (active). Moreover, the GI50 is < 0.000355 µM (active) with DMS-273; < 0.000355 µM (active) in the test on LOX IMVI; 0.604 µM (active) with OVCAR-4; > 3.55 µM (inactive) in the test with KM12; 0.548 µM (active) in the test with HCC 2998; 0.00259 µM (active) in the test on SNB-19. The GI50 with NCI-H23 was 0.00127 µM (active).
